Source: patent publication US8026282B2, “Phenoxyalkylcarboxylic acid derivatives in the treatment of irritable bowel syndrome” (Medicinova, Inc., priority 2004, dated 2011)

Tests used:
PDE5 = PDE5 (Homo sapiens, UniProt O76074); assay: Biochemical assay PDE5; settings: PDE5, Hu
Opiate δ = Opiate δ (Homo sapiens, UniProt P41143); assay: Biochemical assay Opiate δ; format: binding; settings: Hu; for Ki: value in parentheses
PDE4 = assay: Biochemical assay PDE4; settings: PDE4, Hu
LTD4 = biological target: T1, LTD4 (Cavia porcellus, UniProt Q2NNR5); assay: Biochemical assay LTD4; format: binding; settings: LTD4, Gp; for Ki: value in parentheses
T1 sequence (Q2NNR5 1-340): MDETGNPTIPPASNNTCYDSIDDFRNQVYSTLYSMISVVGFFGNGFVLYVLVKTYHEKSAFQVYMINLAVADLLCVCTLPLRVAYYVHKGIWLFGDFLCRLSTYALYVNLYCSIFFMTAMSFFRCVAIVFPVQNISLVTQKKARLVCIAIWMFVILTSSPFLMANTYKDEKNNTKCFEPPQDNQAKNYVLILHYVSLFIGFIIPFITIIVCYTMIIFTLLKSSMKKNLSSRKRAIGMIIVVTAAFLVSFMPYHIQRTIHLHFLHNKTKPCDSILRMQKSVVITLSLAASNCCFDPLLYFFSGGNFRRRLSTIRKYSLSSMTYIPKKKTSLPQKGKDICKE

PDE2 = PDE2 (Homo sapiens, UniProt O00408); assay: Biochemical assay PDE2; settings: PDE2, Hu
Sequence of PDE2 (O00408 whole entry): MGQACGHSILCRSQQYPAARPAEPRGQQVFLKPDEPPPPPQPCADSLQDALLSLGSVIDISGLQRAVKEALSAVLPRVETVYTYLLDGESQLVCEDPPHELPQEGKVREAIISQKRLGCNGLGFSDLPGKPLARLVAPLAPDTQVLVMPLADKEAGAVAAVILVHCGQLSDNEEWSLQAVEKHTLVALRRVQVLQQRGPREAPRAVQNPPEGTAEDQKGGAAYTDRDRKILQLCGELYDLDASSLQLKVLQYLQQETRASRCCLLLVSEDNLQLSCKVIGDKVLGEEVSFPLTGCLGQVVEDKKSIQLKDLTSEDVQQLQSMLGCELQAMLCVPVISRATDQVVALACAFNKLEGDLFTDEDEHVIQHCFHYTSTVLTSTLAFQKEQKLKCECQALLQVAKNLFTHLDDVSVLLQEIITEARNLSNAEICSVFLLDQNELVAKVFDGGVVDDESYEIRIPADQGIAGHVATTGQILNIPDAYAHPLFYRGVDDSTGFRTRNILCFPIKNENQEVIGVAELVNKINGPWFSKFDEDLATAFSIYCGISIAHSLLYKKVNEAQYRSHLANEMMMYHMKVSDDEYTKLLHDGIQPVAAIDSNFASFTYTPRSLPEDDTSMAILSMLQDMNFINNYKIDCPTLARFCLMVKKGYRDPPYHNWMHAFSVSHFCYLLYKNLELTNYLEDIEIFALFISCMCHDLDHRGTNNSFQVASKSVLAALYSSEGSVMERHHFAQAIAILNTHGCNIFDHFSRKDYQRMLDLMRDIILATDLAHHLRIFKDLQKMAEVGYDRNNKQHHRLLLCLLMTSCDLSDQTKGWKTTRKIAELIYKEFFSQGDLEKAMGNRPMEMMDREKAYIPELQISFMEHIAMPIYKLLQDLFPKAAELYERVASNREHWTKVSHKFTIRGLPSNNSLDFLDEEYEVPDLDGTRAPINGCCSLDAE

Adrenergic β3 = Adrenergic β3 (Homo sapiens, UniProt P13945); assay: Biochemical assay Adrenergic β3; format: binding; settings: Adrenergic β3, Hu; for Ki: value in parentheses
Sequence of Adrenergic β3 (P13945 whole entry): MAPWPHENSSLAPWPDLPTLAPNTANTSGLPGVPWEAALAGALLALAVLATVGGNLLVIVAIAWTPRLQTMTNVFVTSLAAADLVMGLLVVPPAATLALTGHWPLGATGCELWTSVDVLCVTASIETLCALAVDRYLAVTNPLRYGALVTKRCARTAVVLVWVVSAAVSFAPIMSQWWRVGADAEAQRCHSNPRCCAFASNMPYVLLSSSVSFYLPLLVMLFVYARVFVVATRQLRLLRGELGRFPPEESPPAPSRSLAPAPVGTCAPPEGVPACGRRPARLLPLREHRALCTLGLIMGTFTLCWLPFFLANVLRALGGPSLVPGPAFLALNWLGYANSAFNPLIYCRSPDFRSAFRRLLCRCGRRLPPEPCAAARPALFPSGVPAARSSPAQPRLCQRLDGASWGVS

PLA2-I = PLA2-I (Sus scrofa, UniProt P00592); assay: Biochemical assay PLA2-I; settings: Pig
Sequence of PLA2-I (P00592 23-146): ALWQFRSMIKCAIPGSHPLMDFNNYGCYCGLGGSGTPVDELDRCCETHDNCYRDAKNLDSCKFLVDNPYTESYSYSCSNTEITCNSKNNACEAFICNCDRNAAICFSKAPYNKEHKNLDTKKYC

Thromboxane A2 = biological target: T2, Thromboxane A2 (Homo sapiens, UniProt P21731); assay: Biochemical assay Thromboxane A2; format: binding; settings: Thromboxane A2, Hu; for Ki: value in parentheses
T2 sequence (P21731 1-343): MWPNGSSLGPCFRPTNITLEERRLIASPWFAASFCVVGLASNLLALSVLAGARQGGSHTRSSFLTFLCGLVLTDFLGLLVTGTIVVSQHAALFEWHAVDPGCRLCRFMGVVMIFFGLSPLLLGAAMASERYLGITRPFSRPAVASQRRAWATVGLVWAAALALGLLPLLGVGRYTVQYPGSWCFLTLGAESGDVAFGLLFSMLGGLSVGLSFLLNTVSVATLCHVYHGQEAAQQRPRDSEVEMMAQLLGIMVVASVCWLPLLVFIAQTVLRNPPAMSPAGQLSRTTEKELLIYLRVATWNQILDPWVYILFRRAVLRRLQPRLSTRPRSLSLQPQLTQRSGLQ

Adrenergic α2B = biological target: T3, Adrenergic α2B (Homo sapiens, UniProt P18089); assay: Biochemical assay Adrenergic α2B; format: binding; settings: Hu; for Ki: value in parentheses
T3 sequence (P18089 1-450): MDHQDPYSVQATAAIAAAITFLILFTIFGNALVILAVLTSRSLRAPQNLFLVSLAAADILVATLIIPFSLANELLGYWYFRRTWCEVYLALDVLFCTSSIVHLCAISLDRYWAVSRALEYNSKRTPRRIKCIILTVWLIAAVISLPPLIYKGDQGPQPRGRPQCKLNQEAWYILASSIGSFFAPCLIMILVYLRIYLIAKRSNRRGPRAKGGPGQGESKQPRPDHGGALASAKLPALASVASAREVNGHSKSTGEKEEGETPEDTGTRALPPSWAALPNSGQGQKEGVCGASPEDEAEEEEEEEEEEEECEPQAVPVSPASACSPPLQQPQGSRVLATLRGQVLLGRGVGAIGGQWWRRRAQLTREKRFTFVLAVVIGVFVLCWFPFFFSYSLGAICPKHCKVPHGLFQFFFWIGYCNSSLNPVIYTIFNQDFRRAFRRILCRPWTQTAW

PDE1 = assay: Biochemical assay PDE1; settings: PDE1, Bov
5-LO = biological target: T4, 5-LO (Homo sapiens, UniProt P09917); assay: Biochemical assay 5-LO; settings: Hu
T4 sequence (P09917 1-674): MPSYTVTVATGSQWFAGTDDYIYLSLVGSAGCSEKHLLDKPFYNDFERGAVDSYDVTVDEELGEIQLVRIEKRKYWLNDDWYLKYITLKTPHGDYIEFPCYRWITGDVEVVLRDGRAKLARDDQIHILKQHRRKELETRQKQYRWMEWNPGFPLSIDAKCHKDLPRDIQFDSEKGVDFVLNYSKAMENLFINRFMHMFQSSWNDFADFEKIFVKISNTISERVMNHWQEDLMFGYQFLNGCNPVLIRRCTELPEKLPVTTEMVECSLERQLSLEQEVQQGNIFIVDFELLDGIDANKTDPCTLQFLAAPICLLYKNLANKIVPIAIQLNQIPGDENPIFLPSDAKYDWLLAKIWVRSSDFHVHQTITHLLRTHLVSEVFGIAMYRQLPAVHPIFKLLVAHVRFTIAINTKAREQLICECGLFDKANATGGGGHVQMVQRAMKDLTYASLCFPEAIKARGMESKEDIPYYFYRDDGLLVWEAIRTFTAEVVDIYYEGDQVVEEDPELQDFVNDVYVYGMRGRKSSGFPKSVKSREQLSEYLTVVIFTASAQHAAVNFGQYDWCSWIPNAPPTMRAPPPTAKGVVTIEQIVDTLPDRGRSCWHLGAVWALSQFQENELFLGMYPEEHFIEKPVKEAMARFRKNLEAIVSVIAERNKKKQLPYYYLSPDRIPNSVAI

Melanocortin MC5 = Melanocortin MC5 (Homo sapiens, UniProt P33032); assay: Biochemical assay Melanocortin MC5; format: binding; settings: Melanocortin MC5, Hu; for Ki: value in parentheses
Sequence of Melanocortin MC5 (P33032 whole entry): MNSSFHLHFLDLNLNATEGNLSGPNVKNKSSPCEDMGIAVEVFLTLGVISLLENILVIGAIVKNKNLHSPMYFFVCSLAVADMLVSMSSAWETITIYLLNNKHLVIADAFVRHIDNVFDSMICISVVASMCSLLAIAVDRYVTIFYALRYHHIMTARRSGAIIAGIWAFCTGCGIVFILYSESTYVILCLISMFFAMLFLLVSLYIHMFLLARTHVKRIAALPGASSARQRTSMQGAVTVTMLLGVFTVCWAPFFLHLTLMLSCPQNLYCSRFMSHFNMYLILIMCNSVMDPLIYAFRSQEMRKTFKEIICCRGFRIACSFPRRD

Sequence of Opiate δ (P41143 whole entry): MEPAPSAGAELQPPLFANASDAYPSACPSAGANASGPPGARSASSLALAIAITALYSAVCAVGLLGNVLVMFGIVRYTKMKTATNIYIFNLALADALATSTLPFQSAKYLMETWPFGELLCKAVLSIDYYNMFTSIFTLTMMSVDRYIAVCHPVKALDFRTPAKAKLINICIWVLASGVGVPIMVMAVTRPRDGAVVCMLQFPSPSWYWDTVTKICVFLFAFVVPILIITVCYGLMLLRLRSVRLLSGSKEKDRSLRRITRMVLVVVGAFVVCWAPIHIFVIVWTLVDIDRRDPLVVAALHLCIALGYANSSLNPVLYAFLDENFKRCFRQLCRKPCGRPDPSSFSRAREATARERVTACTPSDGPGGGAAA

| Structure (SMILES) | IC50 (PDE5) | IC50 (Opiate δ) | Ki (Opiate δ) | IC50 (PDE4) | IC50 (LTD4) | Ki (LTD4) | IC50 (PDE2) | IC50 (Adrenergic β3) | Ki (Adrenergic β3) | IC50 (PLA2-I) | IC50 (Thromboxane A2) | Ki (Thromboxane A2) | IC50 (Adrenergic α2B) | Ki (Adrenergic α2B) | IC50 (PDE1) | IC50 (5-LO) | IC50 (Melanocortin MC5) | Ki (Melanocortin MC5) |
| --- | --- | --- | --- | --- | --- | --- | --- | --- | --- | --- | --- | --- | --- | --- | --- | --- | --- | --- |
| CCCc1c(SCCCOc2ccc(C(C)=O)c(OCCCC(=O)O)c2CCC)ccc(C(C)=O)c1O [Compound 1, 4-[6-acetyl-3-[3-(4-acetyl-3-hydroxy-2-propylphenylthio)propoxy]-2-propylphenoxy]butyric acid] | 12.7 µM | 1.04 µM | 0.365 µM | 0.639 µM | 6.36 µM | 3.18 µM | 3.43 µM | 4.63 µM | 3.47 µM | 142 µM | 3.37 µM | 2.2 µM | 2.81 µM | 1.28 µM | 0.741 µM | 1.11 µM | 2.58 µM | 2.42 µM |
| CCCc1c(SCCCOc2ccc(C(C)O)c(OCCCC(=O)O)c2CCC)ccc(C(C)=O)c1O (stereo not drawn) [Compound 2] | 8.47 µM | 3.03 µM | 1.07 µM | 0.303 µM | 5.35 µM | 2.67 µM | 3.38 µM | 1.1 µM | 0.821 µM | 248 µM | 3.89 µM | 2.54 µM | 1.6 µM | 0.732 µM | 3.08 µM | 1.61 µM | 1.82 µM | 1.71 µM |
